Test results published in patent US20250176545A1, “LIQUID PESTICIDAL COMPOSITION” (SUMITOMO CHEMICAL COMPANY, LIMITED, priority 2022, published 2025).

Experiment: Test Example 2: identification of decomposition products of compound (I) by mass spectra
Assay type: physicochemical
Details: composition with compound (I-A), compound (I-B), dicamba diglycolamine salt, acetic acid and potassium hydroxide, 50° C. for 8 weeks
Description: Test Example 2: Identification of Decomposition Product of Compound (I)
Mass spectra were measured for compositions containing the compound (I-A), the compound (I-B), a dicamba diglycolamine salt, acetic acid and potassium hydroxide, which were left to stand in an incubator at 50° C. for 8 weeks.
The decomposition product a is obtained as a result of ring-opening of a uracil ring due to the cleavage of a C—N bond (bond between an N atom at the 3-position and a C atom at the 4-position) included in an imide structure constituting a uracil ring structure of the compound (I-A), and a bond between an N atom at the 1-position and a C atom at the 6-position. The decomposed product b is obtained as a result of the addition of diglycolamine (DGA) to the terminal ethyl ester moiety, in addition to the ring-opening of the uracil ring of the compound (I-A).

SMILES	decomposition products confirmed
CCOC(=O)COc1ncccc1Oc1cc(-n2c(=O)cc(C(F)(F)F)n(C)c2=O)c(F)cc1Cl [compound (I-A)]	decomposition products a and b
C#CCN1C(=O)COc2cc(F)c(N3C(=O)C4=C(CCCC4)C3=O)cc21 [compound (I-B)]	decomposition product c
